# Measurements as given in patent US8580579B2, “Hydrophilic and lipophilic rhodamines for labelling and imaging” (Max-Planck-Gesellschaft zur Foerderung der Wissenschaften …, priority 2009, dated 2013).
# Entries after “also recorded” stand apart in the source; their conditions may differ. Read-outs that look alike come from different tables or passages of the source.
# Tests used:
# [1] = cited from earlier work; for Φfl: no solvent given in the cell
# [2] = cited from earlier work
# [3] = Chemical and storage stability of dyes and reactive derivatives; format: physicochemical; details: for chemical stability of the active ester: isolation and storage; for stability in a solid state: under Ar
# Description: Usually, amino- or thiol reactive derivatives of the fluorescent dyes are used for labelling of proteins. For conjugation with amines, the free carboxy group needs to be activated by the formation of N-hydroxy(sulfo)succinimidyl esters, phenyl esters with electron-acceptor groups in the benzene ring or similar compounds with good leaving groups. […] Ester 8 partly decomposed in the course of chromatographic isolation using silica gel. Therefore, the reaction mixture containing the active ester 8 was used for labelling the lipids in their non-polar domain and other coupling procedures. […] They were isolated by reversed-phase HPLC using the gradient elution with aqueous acetonitrile with 0.1% (v/v) of TFA, lyophilized and stored at −20° C. under argon. Under these conditions, the content of the corresponding acids 6/6D in the very light dark blue voluminous solids increased from 3-5% up to 7-10% in 2 months. The higher stability of the NHS esters 9 and 10 may be explained by the absence of any nucleophilic counter ion. The maleimide derivative 11 has been prepared straight from compounds 9 and 10 by combining them in DMF with Et3N as base. It was also isolated by HPLC.
# [4] = UV-visible absorption and fluorescence spectra of the dyes of the invention; format: physicochemical; details: for ε · 10^−5 / λmax (abs.) / λmax (fl.): solvent MeOH
# Procedure: UV-visible absorption spectra were recorded on a Varian Cary 4000 UV-Vis spectrophotometer, and fluorescence spectra on a Varian Cary Eclipse fluorescence spectrophotometer. Reactions were carried out upon magnetic stirring in Schlenk flasks equipped with septa or reflux condensers with bubble-counters under argon using a standard manifold with vacuum and argon lines. All NMR spectra are referenced to tetramethylsilane as an internal standard (δ=0 ppm) using the signals of the residual protons of CHCl3 (7.26 ppm) in CDCl3, CHD2OD (3.31 ppm) in CD3OD, HOD (4.75 ppm) in D2O, [D5]acetone (2.04 ppm) in [D6]acetone or [D5]DMSO (2.50 ppm) in [D6]DMSO. Multiplicities of signals are described as follows: s=singlet, br. s=broad singlet, d=doublet, t=triplet, q=quartet, quint=quintet, m=multiplet, mc=centrosymmetrical multiplet. Coupling constants (J) are given in Hz. Multiplicities in the ^13C NMR spectra were determined by APT (Attached Proton Test) measurements. Low resolution mass spectra (electro spray ionization, ESI) were obtained with LCQ and ESI-TOF mass-spectrometers (MICROTOF (focus), Fa. Bruker). The MICROTOF spectrometer equipped with ESI ion source Apollo and direct injector with LC autosampler Agilent RR 1200 was used for obtaining high resolution mass spectra (ESI-HRMS). ESI-HRMS were obtained also on APEX IV spectrometer (Bruker). HPLC system (Knauer): Smartline pump 1000 (2×), UV detector 2500, column thermostat 4000 (25° C.), mixing chamber, injection valve with 20 and 100 μL loop for the analytical and preparative columns, respectively; 6-port-3-channel switching valve; analytical column: Eurospher-100 C18, 5 μm, 250×4 mm, 1.1 mL/min; preparative column: Eurospher-100-5 C18, 5 μm, 250×8 mm, 3.7 mL/min; solvent A: water+0.1% v/v trifluoroacetic acid (TFA); solvent B: MeCN+0.1% v/v TFA; detection at 636 nm (if not stated otherwise). Normal phase analytical TLC was performed on MERCK ready-to-use plates with silica gel 60 (F254) and reversed phase TLC—on RP-18W/UV254 precoated TLC plates (Macherey-Nagel). Preparative TLC was performed on MERCK HPTLC silica gel 60 plates (10×10 cm, layer thickness 0.2 mm). Column chromatography: MERCK silica gel, grade 60, 0.04-0.063 mm or Polygoprep 60-50 C18 (Macherey-Nagel).
# [5] = Fluorescence quantum yield, Atto 633 as reference; format: physicochemical; details: Atto 633 as reference (Φfl = 64% in aqueous buffer)
# Description: Moreover, intersystem crossing rates (kISC) and rates of the T1→S0 transitions were also found to be the same for both deuterated and undeuterated substances (see ref. to Table 2).
# [6] = Solubility and polarity of the dyes
# [7] = Chemical and storage stability of dyes and reactive derivatives; format: physicochemical
smiles,measurement,setting,value
CCN(CC)c1ccc2c(C=CC=C3N(CCCCCC(=O)O)c4ccc(S(=O)(=O)[O-])cc4C3(C)C)cc(C(C)(C)C)[o+]c2c1 [DY-630],τfl,[1]; H2O,0.21 ns
same,Φfl,[1],Varies^6
same,ε · 10^−5,[1]; solvent EtOH,2.0 M^−1 cm^−1
same,λmax (abs.),[1]; solvent EtOH,636 nm
same,λmax (fl.),[1]; solvent EtOH,657 nm
same,λmax (abs.),[1]; solvent H2O,627^1 nm
same,λmax (fl.),[1]; solvent H2O,651^1 nm
same,Solubility (solvents),[2],"MeOH, EtOH,; also recorded: DMF, DMSO"
CC1=CC(C)(C)N2CCCc3c4c(cc1c32)C(c1c(F)c(F)c(F)c(F)c1C(=O)N(C)CCC(=O)Oc1c(F)c(F)cc(F)c1F)=c1cc2c3c(c1O4)CCC[N+]=3C(C)(C)C=C2C [Compound 8],chemical stability of the active ester,[3],Low chemical stability
CC(C)(C)c1cc(C=CC=C2N(CCCCCC(=O)O)c3ccc(S(=O)(=O)[O-])cc3C2(C)C)c2cc3c4c(c2[o+]1)CCCN4CCC3 [DY-635],τfl,[1]; H2O,0.48 ns
same,ε · 10^−5,[1]; solvent EtOH,2.0 M^−1 cm^−1
same,λmax (abs.),[1]; solvent EtOH,647 nm
same,λmax (fl.),[1]; solvent EtOH,671 nm
same,λmax (abs.),[1]; solvent H2O,635^1 nm
same,λmax (fl.),[1]; solvent H2O,669^1 nm
same,Solubility (solvents),[2],"MeOH, EtOH,; also recorded: DMF, DMSO"
CC1=CC(C)(C)N2CCCc3c4c(cc1c32)C(c1c(F)c(F)c(F)c(F)c1C(=O)N(C)CCC(=O)O)=c1cc2c3c(c1O4)CCC[N+]=3C(C)(C)C=C2C [Compound 5-H],Stokes shift,[4]; dyes of the invention,23 nm
same,ε · 10^−5,[4],0.73 M^−1 cm^−1
same,λmax (abs.),[4],638 nm
same,λmax (fl.),[4],661.5 nm
same,Φfl in water,[5],53%
same,Solubility (solvents),[6],"DMF, THF, CHCl3;"
same,polarity,[6],non-polar
same,solubility in organic solvents,[6],moderately soluble in polar organic solvents; also recorded: very good
same,solubility in water or aqueous buffers,[6],very slightly soluble in water
CCN1c2cc3[o+]c(C(C)(C)C)cc(C=CC=C4N(CCCCCC(=O)O)c5ccc(S(=O)(=O)[O-])cc5C4(C)C)c3cc2C(C)=CC1(C)C [DY-650],τfl,[1]; H2O,0.64 (H2O)^1 ns
same,ε · 10^−5,[1]; solvent EtOH,2.2 M^−1 cm^−1
same,λmax (abs.),[1]; solvent EtOH,653 nm
same,λmax (fl.),[1]; solvent EtOH,674 nm
same,λmax (abs.),[1]; solvent H2O,646^1 nm
same,λmax (fl.),[1]; solvent H2O,670 nm
same,Solubility (solvents),[2],"MeOH, EtOH,; also recorded: DMF, DMSO"
CC[N+](CC)=c1ccc2c(/C=C/C=C3/N(CCCS(=O)(=O)[O-])c4ccc(S(=O)(=O)[O-])cc4C3(C)CCCC(=O)O)cc(C(C)(C)C)oc-2c1.[Na+] (centres unmarked) [DY-631],ε · 10^−5,[1]; solvent EtOH,2.0 M^−1 cm^−1
same,Solubility (solvents),[2],"H2O, MeOH,; also recorded: DMF, DMSO"
COC(=O)CCN(C)C(=O)c1c(F)c(F)c(F)c(F)c1C1=c2cc3c4c(c2Oc2c1cc1c5c2CCCN5C(C)(C)C=C1C)CCC[N+]=4C(C)(C)C=C3C [Compound 5-Me],ε · 10^−5,[4],0.66 M^−1 cm^−1
same,λmax (abs.),[4],638 nm
same,λmax (fl.),[4],661.5 nm
same,Φfl in water,[5],62%
same,Solubility (solvents),[6],"DMF, THF, CHCl3;"
same,polarity,[6],non-polar
same,solubility in organic solvents,[6],soluble in most organic solvents (except alkanes)
same,solubility in water or aqueous buffers,[6],insoluble in water
CC(C)(C)C1=CC(=CC=CC2=[N+](CCCS(=O)(=O)[O-])c3ccc(S(=O)(=O)[O-])cc3C2(C)CCCC(=O)O)c2cc3c4c(c2O1)CCCN4CCC3.[Na+] (centres unmarked) [DY-636],ε · 10^−5,[1]; solvent EtOH,2.0 M^−1 cm^−1
same,λmax (abs.),[1]; solvent EtOH,645 nm
same,λmax (fl.),[1]; solvent EtOH,671 nm
same,Solubility (solvents),[2],"H2O, EtOH,; also recorded: DMF, DMSO"
O=C(O)CCCCCNC(=O)COc1ccc(/C=C/C2=[N+]3C(=Cc4ccc(-c5cccs5)n4[B-]3(F)F)C=C2)cc1 [BODIPY ® 630/650],τfl,[1]; EtOH,4.4 (EtOH)^1 ns
same,τfl,[1]; H2O,3.9 (H2O) ns
same,Φfl,[1],“good”
same,ε · 10^−5,[1]; solvent MeOH,1.01 M^−1 cm^−1
same,λmax (abs.),[1]; solvent MeOH,625 nm
same,λmax (fl.),[1]; solvent MeOH,640 nm
same,Solubility (solvents),[2],"DMSO, MeCN"
CC[N+](CCCS(=O)(=O)[O-])=c1ccc2c(C=CC=C3N(CCCCCC(=O)O)c4ccc(S(=O)(=O)[O-])cc4C3(C)C)cc(C(C)(C)C)oc-2c1.[Na+] [DY-633],ε · 10^−5,[1]; solvent EtOH,2.0 M^−1 cm^−1
same,Solubility (solvents),[2],"H2O, MeOH,; also recorded: DMF, DMSO"
CN(CCC(=O)NCCN1C(=O)C=CC1=O)C(=O)c1c(F)c(F)c(F)c(F)c1C1=c2cc3c4c(c2Oc2c1cc1c5c2CCCN5C(C)(C)C=C1CS(=O)(=O)O)CCC[N+]=4C(C)(C)C=C3CS(=O)(=O)O [Compound 11],stability in a solid state,[3],stable
same,stability in methanol or methanol-containing solutions,[7],decomposes; also recorded: sensitive to methanol even at room temperature
same,solubility in water or aqueous buffers,[6],soluble in water
CC1=CC(C)(C)N2CCCc3c4c(cc1c32)C(c1c(F)c(F)c(F)c(F)c1C(=O)N(C)CCC(=O)OC(C)(C)C)=c1cc2c3c(c1O4)CCC[N+]=3C(C)(C)C=C2C [Compound 5-tBu],ε · 10^−5,[4],0.92 M^−1 cm^−1
same,λmax (abs.),[4],638 nm
same,λmax (fl.),[4],661 nm
same,Φfl in water,[5],61%
same,Solubility (solvents),[6],"DMF, THF, CHCl3;"
same,polarity,[6],non-polar
same,solubility in organic solvents,[6],soluble in most organic solvents (except alkanes)
same,solubility in water or aqueous buffers,[6],insoluble in water
COC(=O)c1c(F)c(F)c(F)c(F)c1C1=c2cc3c4c(c2Oc2c1cc1c5c2CCCN5C(C)(C)C=C1C)CCC[N+]=4C(C)(C)C=C3 [Compound 7],λmax (abs.),[4],632 nm
same,λmax (fl.),[4],655.5 nm
same,Solubility (solvents),[6],"CHCl3, THF"
same,polarity,[6],non-polar
CCN(CCCS(=O)(=O)[O-])c1ccc2nc3ccc(=[N+](C)CCC(=O)O)cc-3oc2c1 [Evoblue 30],τfl,[1]; H2O,0.64 (H2O)^1 ns
same,ε · 10^−5,[1]; solvent EtOH,1.0 M^−1 cm^−1
same,λmax (abs.),[1]; solvent EtOH,647 nm
same,λmax (fl.),[1]; solvent EtOH,664 nm
same,λmax (abs.),[1]; solvent H2O,650^1 nm
same,λmax (fl.),[1]; solvent H2O,667^1 nm
same,Solubility (solvents),[2],"H2O, MeOH,; also recorded: DMF, DMSO"
CN(CCC(=O)ON1C(=O)CCC1=O)C(=O)c1c(F)c(F)c(F)c(F)c1C1=c2cc3c4c(c2Oc2c1cc1c5c2CCCN5C(C)(C)C=C1CS(=O)(=O)O)CCC[N+]=4C(C)(C)C=C3CS(=O)(=O)[O-] [Compound 9],chemical stability of the active ester,[3],remarkably stable
same,stability in a solid state,[3],stable
same,stability in aqueous solutions,[7]; at RT,decomposes
same,solubility in water or aqueous buffers,[6],soluble in water
CC(C)(C)c1cc(C=CC=C2N(CCCC(=O)O)c3ccc(S(=O)(=O)[O-])cc3C2(C)CCCS(=O)(=O)[O-])c2ccc(=[N+](CCCS(=O)(=O)[O-])CCCS(=O)(=O)[O-])cc-2o1.[Na+].[Na+].[Na+] (centres unmarked) [DY-634],ε · 10^−5,[1]; solvent EtOH,2.0 M^−1 cm^−1
same,Solubility (solvents),[2],"H2O, MeOH,; also recorded: DMF, DMSO"
